Experimental data from US20080045514A1 (Cytovia, Inc., priority 2006, published 2008).
pEC50: −log10 of the molar value. Where a name gives a salt, the structure may show the parent alone. Read-outs that look alike come from different tables or passages of the source.

Tests used:
Format in all cases: cell-based
[1] = test system: human breast cancer cell line T-47D; assay: Caspase cascade activation (EC50), T-47D; details: T47D cells, caspase cascade activation, read-out: caspase potency (EC50) T47D
Method in brief: (§1)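 48 h compound exposure (0.016–10 μM final) at 37 °C, 5% CO2; then DEVD-R110 substrate in lysolecithin/DTT/PIPES pH 7.2 buffer, 3 h RT. Fluorescence ex485/em530; net RFU = T=3 h minus control T=0; ratio to control; sigmoidal fit → EC50 (nM).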

[2] = test system: human hepatocellular carcinoma cell line SNU398; assay: Caspase cascade activation (EC50), SNU398; details: SNU398 cells, caspase cascade activation, read-out: caspase potency (EC50) SNU398
Method in brief: as §1

[3] = test system: human colon carcinoma cell line HCT116; assay: Caspase cascade activation (EC50), HCT116; details: HCT116 cells, caspase cascade activation, read-out: caspase potency (EC50) HCT116
Method in brief: as §1

[4] = test system: human Burkitt's lymphoma cell line Namalwa; assay: Caspase cascade activation (EC50), Namalwa; details: Namalwa cells, caspase cascade activation, read-out: caspase potency (EC50) Namalwa
Method in brief: as §1

[5] = test system: human lymphoma cell line Raji; assay: Caspase cascade activation (EC50), Raji; details: RAJI cells, read-out: caspase potency (EC50) RAJI
Method in brief: as §1

[6] = test system: human B cell lymphoblastoid cell line Ramos; assay: Caspase cascade activation (EC50), Ramos; details: RAMOS cells, read-out: caspase potency (EC50) RAMOS
Method in brief: as §1

[7] = test system: human colon carcinoma cell line HCT116; assay: Inhibition of cell proliferation (GI50), HCT116; details: HCT 116 cells, 48 h, CellTiter-Glo
Protocol: (§2) Human breast cancer cell lines T-47D, human hepatocellular carcinoma cell line SNU398, human colon carcinoma cell line HCT116, human lung cancer cell line H1299, human leukemia cell line K562, human lymphoma cell line Raji, human B cell lymphoblastoid cell line Ramos, and human Burkitt's lymphoma cell line Namalwa were grown and harvested as in Example 100. An aliquot of […] of cells (4.4×10^4 cells/mL) was added to a well of a 96-well microtiter plate containing 5 μL of a 10% DMSO in RPMI-1640 media solution containing 10 nM to 100 μM of 3-(2-chlorophenyl)-6-(3,4-methylenedioxyphenyl)-7H-[1,2,4]triazolo[3,4-b][1,3,4]thiadiazine (1 nM to 10 μM final). An aliquot of 45 μL of cells was added to a well of a 96-well microtiter plate containing 5 μL of a 10% DMSO in RPMI-1640 media solution without compound as the control sample for maximal cell proliferation (LMax). The samples were mixed by agitation and then incubated at 37° C. for 48 h in a 5% CO2-95% humidity incubator. After incubation, the samples were removed from the incubator and 25 μL of CellTiter-Glo™ reagent (Promega) was added. The samples were mixed by agitation and incubated at room temperature for 10-15 min. Plates were then read using a luminescent plate reader (Model SPECTRAfluor Plus, Tecan) to give Ltest values.
(§3) The samples were mixed by agitation and then incubated at 37° C. for 0.5 h in a 5% CO2-95% humidity incubator. After incubation, the samples were removed from the incubator and 25 μL of CellTiter-Glo™ reagent (Promega) was added. The samples were mixed by agitation and incubated at […] 10-15 min at room temperature in a 5% CO2-95% humidity incubator. Fluorescence was read as above, (LStart) defining luminescence for initial cell number used as baseline in GI50 determinations.
(§4) Calculation: GI50 (dose for 50% inhibition of cell proliferation) is the concentration where [(Ltest−LStart)/(LMax−LStart)]=0.5.

[8] = test system: human leukemia cell line K562; assay: Inhibition of cell proliferation (GI50), K562; details: K562 cells, 48 h, CellTiter-Glo
Protocol: as §2, §3, §4

[9] = test system: human lymphoma cell line Raji; assay: Inhibition of cell proliferation (GI50), Raji; details: Raji cells, 48 h, CellTiter-Glo
Protocol: as §2, §3, §4

[10] = test system: human B cell lymphoblastoid cell line Ramos; assay: Inhibition of cell proliferation (GI50), Ramos; details: Ramos cells, 48 h, CellTiter-Glo
Protocol: as §2, §3, §4

[11] = test system: human Burkitt's lymphoma cell line Namalwa; assay: Inhibition of cell proliferation (GI50), Namalwa; details: Namalwa cells, 48 h, CellTiter-Glo
Protocol: as §2, §3, §4

[12] = Homo sapiens, Burkitts lymphoma cell

Compound	pEC50 ([1]; Homo sapiens)	pEC50 ([2]; Homo sapiens, SNU-398)	pEC50 ([3]; Homo sapiens, HCT-116)	pEC50 [4, 12]	pEC50 ([5]; Homo sapiens)	pEC50 ([6]; Homo sapiens)	GI50 ([7]; Homo sapiens)	GI50 ([8]; Homo sapiens)	GI50 ([9]; Homo sapiens)	GI50 ([10]; Homo sapiens)	GI50 [11, 12]	other results
COc1ccc(-c2nnc3n2N=C(c2ccc(N(C)C)cc2)CS3)cc1OC [Example 30, 6-(4-Dimethylminophenyl)-3-(3,4-dimethoxyphenyl)-7H-[1,2,4]triazolo[3,4-b][1,3,4]thiadiazine]												pEC50 [1]: 6.44; pEC50 [2]: 6.92; pEC50 [3]: 6.66; pEC50 [4]: 7.26; pEC50 [5]: 7.19; pEC50 [6]: 7.24; GI50 [7]: 126 nM; GI50 [8]: 50 nM; GI50 [9]: 157 nM; GI50 [10]: 100 nM; GI50 [11]: 102 nM
COc1cc(OC)cc(-c2nnc3n2N=C(c2ccc(C)cc2)CS3)c1 [Example 12, 3-(3,5-Dimethoxyphenyl)-6-(4-methylphenyl)-7H-[1,2,4]triazolo[3,4-b][1,3,4]thiadiazine hydrochloride]	6.12	7.21	7.15	7.70	7.26	7.70	50 nM	7 nM	15 nM	5 nM	6 nM	
COc1ccc(C2=Nn3c(nnc3-c3cccc(C)c3)SC2)cc1 [Example Q2]	6.30	7.21	7.00	7.10	6.92	7.19	359 nM	37 nM	587 nM	33 nM	112 nM	
COc1ccccc1-c1nnc2n1N=C(c1ccc(N3CCCC3)cc1)CS2 [Example 24, 3-(2-Methoxyphenyl)-6-(4-(pyrrolidin-1-yl)phenyl)-7H-[1,2,4]triazolo[3,4-b][1,3,4]thiadiazine]	7.04	7.39	7.21	7.46	6.97	7.21	41 nM	17 nM	15 nM	16 nM	64 nM	
COc1ccc(-c2nnc3n2N=C(c2ccc(C)cc2)CS3)c(OC)c1 [Example 15, 3-(2,4-Dimethoxyphenyl)-6-(4-methylphenyl)-7H-[1,2,4]triazolo[3,4-b][1,3,4]thiadiazine hydrobromide]	7.47	8.30	8.10	8.15	7.92	8.10	10 nM	4 nM	4 nM	1 nM	6 nM	
CCN(CC)c1ccc(C2=Nn3c(nnc3-c3ccccc3OC)SC2)cc1 [Example 23, 6-(4-Diethylaminophenyl)-3-(2-methoxyphenyl)-7H-[1,2,4]triazolo[3,4-b][1,3,4]thiadiazine]	7.49	7.74	7.59	7.82	7.57	7.57	13 nM	2 nM	2 nM	3 nM	7 nM	
COc1ccc(C2=Nn3c(nnc3-c3ccccc3Br)SC2)cc1 [Example D3]	6.48	7.21	6.84	7.27	6.94	7.12	100 nM	44 nM	85 nM	49 nM	33 nM	
COc1ccccc1-c1nnc2n1N=C(c1ccc(OCCO)cc1)CS2 [Example 10, 6-(4-(2-Hydroxyethoxy)phenyl)-3-(2-methoxyphenyl)-7H-[1,2,4]triazolo[3,4-b][1,3,4]thiadiazine]	6.52	6.57	6.21	6.60	6.37	6.51	1670 nM	315 nM	746 nM	173 nM	618 nM	
COc1ccc(-c2nnc3n2N=C(c2ccc(C)cc2)CS3)cc1OC [Example 14, 3-(3,4-Dimethoxyphenyl)-6-(4-methylphenyl)-7H-[1,2,4]triazolo[3,4-b][1,3,4]thiadiazine hydrobromide]	6.40	7.19	6.97	6.88	6.70	6.90	1010 nM	87 nM	838 nM	300 nM	137 nM	
COc1ccc(C2=Nn3c(nnc3-c3ccccc3F)SC2)cc1 [Example L2, 3-(2-Fluorophenyl)-6-(4-methoxyphenyl)-7H-[1,2,4]triazolo[3,4-b][1,3,4]thiadiazine]	6.26	7.26	6.91	7.12	7.07	7.22	142 nM	34 nM	247 nM	20 nM	68 nM	
COc1ccccc1-c1nnc2n1N=C(c1ccc(O)cc1)CS2 [Example 7, 6-(4-Hydroxyphenyl)-3-(2-methoxyphenyl)-7H-[1,2,4]triazolo[3,4-b][1,3,4]thiadiazine hydrobromide]	6.76	6.83	6.55	6.60	6.32	6.58	1180 nM	219 nM	1000 nM	176 nM	579 nM	
CCN(CC)c1ccc(C2=Nn3c(nnc3-c3cc(OC)cc(OC)c3)SC2)cc1 [Example 26, 6-(4-Diethylaminophenyl)-3-(3,5-dimethoxyphenyl)-7H-[1,2,4]triazolo[3,4-b][1,3,4]thiadiazine]	6.53	6.94	6.55	6.97	6.81	7.14	20 nM	20 nM	17 nM	20 nM	16 nM	
COc1ccc(C2=Nn3c(nnc3-c3ccc(C)cc3)SC2)cc1 [Example U2]	6.27	7.07	6.77	6.89	6.72	6.90	1100 nM	72 nM	730 nM	100 nM	256 nM	
COc1ccc(C2=Nn3c(nnc3-c3cccc(F)c3)SC2)cc1 [Example C3]	5.77	6.90	6.37	6.88	6.61	6.82	852 nM	63 nM	130 nM	100 nM	112 nM	
COc1ccc(C2=Nn3c(nnc3-c3ccc(Br)cc3)SC2)cc1 [Example E3]	6.61	7.07	6.80	7.32	6.90	7.11	200 nM	33 nM	66 nM	21 nM	47 nM	
